According to ChEMBL document CHEMBL1145068 (J Med Chem, 2003):

Legend:
[1] = target: T1, Alpha-1A adrenergic receptor (Rattus norvegicus, UniProt P43140); assay: Binding affinity for rat cortex alpha-1 adrenergic receptor by inhibition of [3H]prazosin binding
T1 sequence (P43140 whole entry): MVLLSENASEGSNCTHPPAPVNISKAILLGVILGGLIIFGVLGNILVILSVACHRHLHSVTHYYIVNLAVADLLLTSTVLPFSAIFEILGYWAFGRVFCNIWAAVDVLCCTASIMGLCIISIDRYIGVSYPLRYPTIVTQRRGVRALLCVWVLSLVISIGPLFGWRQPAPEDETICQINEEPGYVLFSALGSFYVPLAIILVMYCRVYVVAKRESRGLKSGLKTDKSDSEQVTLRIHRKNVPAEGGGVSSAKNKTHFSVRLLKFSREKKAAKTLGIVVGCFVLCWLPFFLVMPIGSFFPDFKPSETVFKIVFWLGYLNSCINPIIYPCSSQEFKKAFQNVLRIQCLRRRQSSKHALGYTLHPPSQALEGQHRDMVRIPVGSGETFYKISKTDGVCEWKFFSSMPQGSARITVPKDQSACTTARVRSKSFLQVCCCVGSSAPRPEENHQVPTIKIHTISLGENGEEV

[2] = target: T2, Alpha-2A adrenergic receptor (Rattus norvegicus, UniProt P22909); assay: Binding affinity for rat cortex Alpha-2 adrenergic receptor was determined using [3H]-RX 81002 binding
T2 sequence (P22909 whole entry): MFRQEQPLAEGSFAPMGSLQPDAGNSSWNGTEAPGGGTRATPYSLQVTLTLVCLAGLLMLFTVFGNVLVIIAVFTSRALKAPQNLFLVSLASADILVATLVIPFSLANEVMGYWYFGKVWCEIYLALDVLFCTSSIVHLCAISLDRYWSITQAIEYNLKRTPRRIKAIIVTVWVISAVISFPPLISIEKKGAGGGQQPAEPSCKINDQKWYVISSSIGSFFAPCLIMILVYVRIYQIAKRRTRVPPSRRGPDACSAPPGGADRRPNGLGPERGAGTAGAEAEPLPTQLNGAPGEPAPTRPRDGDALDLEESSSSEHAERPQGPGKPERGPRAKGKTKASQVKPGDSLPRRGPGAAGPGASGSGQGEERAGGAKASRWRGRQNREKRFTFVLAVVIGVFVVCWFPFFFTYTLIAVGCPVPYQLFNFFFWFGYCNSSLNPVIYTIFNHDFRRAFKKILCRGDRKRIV

D(1A) dopamine receptor = D(1A) dopamine receptor (Rattus norvegicus, UniProt P18901); assay: Binding affinity for rat striatum Dopamine receptor D1 by […] displacement.; type: tissue-based
D(2) dopamine receptor = D(2) dopamine receptor (Rattus norvegicus, UniProt P61169); assay: Binding affinity for rat striatum Dopamine receptor D2 by [3H]spiperone displacement.; type: tissue-based
D(3) dopamine receptor = D(3) dopamine receptor (Rattus norvegicus, UniProt P19020); assay: biochemical
Description: Binding affinity for rat striatum Dopamine receptor D3 (sf9 cells) by [3H]7-OH-DPAT displacement.

[3] = target: D(3) dopamine receptor (Homo sapiens) (UniProt P35462); assay: Maximal stimulation reached was evaluated by using [35S]- GTP-gamma S radioligand; type: functional
[4] = target: T2, Alpha-2A adrenergic receptor; assay: Binding affinity for rat cortex alpha-2 adrenergic receptor was determined using [3H]-RX 81002 binding
[5] = target: T3, 5-hydroxytryptamine receptor 1A (Rattus norvegicus, UniProt P19327); assay: Binding affinity for rat hippocampus 5-hydroxytryptamine 1A receptor by inhibition of [3H]8-OH-DPAT binding; type: tissue-based
T3 sequence (P19327 whole entry): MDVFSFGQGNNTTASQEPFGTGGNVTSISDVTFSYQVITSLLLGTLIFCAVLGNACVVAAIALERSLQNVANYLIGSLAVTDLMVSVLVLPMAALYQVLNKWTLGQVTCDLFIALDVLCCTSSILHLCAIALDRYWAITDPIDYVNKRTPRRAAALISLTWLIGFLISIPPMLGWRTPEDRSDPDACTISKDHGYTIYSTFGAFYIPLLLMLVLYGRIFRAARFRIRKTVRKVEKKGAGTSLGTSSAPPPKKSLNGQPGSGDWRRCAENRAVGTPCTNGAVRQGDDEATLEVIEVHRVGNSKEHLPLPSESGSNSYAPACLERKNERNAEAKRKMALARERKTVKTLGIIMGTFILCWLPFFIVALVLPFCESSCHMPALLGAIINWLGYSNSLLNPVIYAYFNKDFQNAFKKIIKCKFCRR

D(3) dopamine receptor, sequence (P19020 whole entry): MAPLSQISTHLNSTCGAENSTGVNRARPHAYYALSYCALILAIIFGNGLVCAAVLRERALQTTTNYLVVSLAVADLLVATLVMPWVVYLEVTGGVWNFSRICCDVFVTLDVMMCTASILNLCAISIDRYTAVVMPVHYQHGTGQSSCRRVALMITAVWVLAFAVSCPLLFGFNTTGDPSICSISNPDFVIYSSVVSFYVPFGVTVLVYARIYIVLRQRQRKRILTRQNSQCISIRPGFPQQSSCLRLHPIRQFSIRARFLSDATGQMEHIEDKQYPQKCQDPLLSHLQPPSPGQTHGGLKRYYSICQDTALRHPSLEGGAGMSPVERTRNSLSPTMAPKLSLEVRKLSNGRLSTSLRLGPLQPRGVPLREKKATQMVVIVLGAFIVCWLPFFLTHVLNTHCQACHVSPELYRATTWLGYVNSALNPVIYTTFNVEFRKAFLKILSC
D(1A) dopamine receptor, sequence (P18901 whole entry): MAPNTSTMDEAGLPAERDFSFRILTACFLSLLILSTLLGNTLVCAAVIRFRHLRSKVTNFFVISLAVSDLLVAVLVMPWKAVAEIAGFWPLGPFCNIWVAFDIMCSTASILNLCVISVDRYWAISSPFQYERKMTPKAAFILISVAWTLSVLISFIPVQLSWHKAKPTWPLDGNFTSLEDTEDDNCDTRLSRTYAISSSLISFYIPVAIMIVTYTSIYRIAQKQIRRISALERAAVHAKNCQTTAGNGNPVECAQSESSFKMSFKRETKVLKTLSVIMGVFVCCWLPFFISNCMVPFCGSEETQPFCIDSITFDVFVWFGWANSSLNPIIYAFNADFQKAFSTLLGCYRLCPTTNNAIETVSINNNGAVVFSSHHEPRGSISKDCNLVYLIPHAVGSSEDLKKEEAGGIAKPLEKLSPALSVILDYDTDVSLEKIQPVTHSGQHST
D(2) dopamine receptor, sequence (P61169 whole entry): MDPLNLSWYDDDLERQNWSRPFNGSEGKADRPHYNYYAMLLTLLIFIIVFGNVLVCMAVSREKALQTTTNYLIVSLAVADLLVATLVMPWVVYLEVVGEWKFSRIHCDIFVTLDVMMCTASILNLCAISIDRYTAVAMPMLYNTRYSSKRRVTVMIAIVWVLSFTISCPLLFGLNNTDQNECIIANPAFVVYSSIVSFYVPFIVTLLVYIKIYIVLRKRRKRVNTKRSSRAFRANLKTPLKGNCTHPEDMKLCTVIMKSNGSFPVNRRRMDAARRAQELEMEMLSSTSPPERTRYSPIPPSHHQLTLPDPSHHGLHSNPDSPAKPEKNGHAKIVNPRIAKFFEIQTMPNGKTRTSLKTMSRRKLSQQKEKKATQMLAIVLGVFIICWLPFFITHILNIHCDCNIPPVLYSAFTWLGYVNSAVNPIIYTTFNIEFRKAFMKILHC
D(3) dopamine receptor (Homo sapiens), sequence (P35462 whole entry): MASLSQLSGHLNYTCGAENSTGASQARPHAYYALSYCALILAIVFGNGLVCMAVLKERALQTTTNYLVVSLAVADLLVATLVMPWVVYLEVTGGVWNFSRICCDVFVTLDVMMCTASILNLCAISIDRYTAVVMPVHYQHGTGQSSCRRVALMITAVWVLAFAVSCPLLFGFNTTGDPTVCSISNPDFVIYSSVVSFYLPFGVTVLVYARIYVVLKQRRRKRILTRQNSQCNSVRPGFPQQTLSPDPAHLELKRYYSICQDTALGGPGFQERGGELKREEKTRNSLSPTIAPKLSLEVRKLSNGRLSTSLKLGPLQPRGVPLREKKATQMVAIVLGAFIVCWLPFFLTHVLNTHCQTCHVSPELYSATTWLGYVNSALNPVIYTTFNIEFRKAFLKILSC

| Compound | Ki [1] [nM] | Ki [2] [nM] | Ki (D(1A) dopamine receptor) [nM] | Ki (D(2) dopamine receptor) [nM] | Ki (D(3) dopamine receptor) [nM] | Activity [3] [µM] | Ki [4] [nM] | Ki [5] [nM] |
| --- | --- | --- | --- | --- | --- | --- | --- | --- |
| O=C(NCCCCN1CCN(c2ccc(Cl)cc2Cl)CC1)c1cc2ccccc2[nH]1 | 547 | > 10000 | > 10000 | – | – | – | – | – |
| COc1ccccc1N1CCN(CCNCc2coc(-c3ccc4ccccc4c3)n2)CC1 | – | – | > 10000 | 86 | 295 | – | – | – |
| COc1ccccc1N1CCN(CC2CCN(C(=O)c3cc4ccccc4o3)CC2)CC1 | – | – | 2680 | 244 | 74 | – | – | – |
| NCCc1c[nH]c2ccc(O)cc12 | – | – | – | – | – | 30 | – | – |
| O=C(NCCCCN1CCN(c2ccc(Cl)cc2Cl)CC1)c1cc2cc(Cl)ccc2[nH]1 | 8100 | > 10000 | > 10000 | – | 0.38 | – | – | – |
| N#Cc1ccc(N2CCN(CCCCNC(=O)c3cc4ccccc4o3)CC2)cc1 | – | – | – | – | 41.3 | – | – | – |
| COc1ccccc1N1CCN(CCCCNC(=O)c2ccc3ccccc3c2)CC1 [BP-897] | – | 83 | – | – | – | – | – | – |
| COc1ccccc1N1CCN(CCCCNC(=O)c2cnc3ccccc3n2)CC1 | – | – | 1440 | 84 | 11 | – | – | – |
| O=C(NCCCCN1CCN(c2ccc(Cl)c(Cl)c2)CC1)c1cc2ccccc2o1 | – | – | 1660 | 333 | 7.8 | – | – | – |
| COc1ccccc1N1CCN(CCCCNC(=O)c2nc3ccccc3n3cccc23)CC1 | – | – | 778 | 59 | 28 | – | – | – |
| COc1ccccc1N1CCN(CCCCNC(=O)[C@H]2Cc3ccccc3CN2)CC1 | – | – | – | – | 4.3 | – | – | – |
| COc1ccccc1N1CCN(CCCCNC(=O)c2cc3ccccc3cn2)CC1 | 5.8 | – | 1480 | 75 | 0.49 | – | 76 | 3.12 |
| COc1ccccc1N1CCN(CCCCNC(=O)c2cc3ccccc3[nH]2)CC1 | 666 | 76 | 970 | 160 | 2.9 | – | – | 11.8 |
| COc1ccccc1N1CCN(CCCCNC(=O)[C@@H]2Cc3ccccc3CN2)CC1 | – | – | – | – | 9.2 | – | – | – |
| COc1ccccc1N1CCN(CCNCc2coc(-c3cc4ccccc4o3)n2)CC1 | – | – | > 10000 | 518 | 759 | – | – | – |
| COc1ccccc1N1CCN(CCCCNC(=O)c2cc3ccccc3o2)CC1 | 36 | 54 | – | – | – | – | – | – |
| O=C(NCCCCN1CCN(c2ccc(Cl)cc2Cl)CC1)c1cc2ccccc2cn1 | 629 | 1050 | 7750 | 342 | 0.66 | – | – | 1050 |
| COc1ccccc1N1CCN(CCCCN2CCn3c(cc4ccccc43)C2=O)CC1 | 33 | 89 | 1570 | 45 | 0.87 | – | – | 4.9 |
| O=C(NCCCCN1CCN(c2ccc(Cl)cc2Cl)CC1)c1cc2ccccc2o1 | 779 | 1890 | 7660 | 409 | 0.41 | – | – | 908 |
| COc1ccccc1N1CCN(CCCCNC(=O)c2ccc3ccccc3n2)CC1 | – | – | 1350 | 83 | 4.8 | – | – | – |
